What all share (format): functional, cell-based
The test system of test [1] is Raji. In words: Growth inhibition of human Raji cells measured after 72 hrs by CCK8 assay. For orientation: Tetrazolium assays rely on reduction of a dye to a coloured formazan, in cell work by metabolically active cells.
The subject of test [2] is TF-1. The test can be described thus: Growth inhibition of human TF-1 cells measured after 72 hrs by CCK8 assay. The note with it: TF-1, 72 h.
Test [3] has as its system THP-1. The test can be described thus: Growth inhibition of human THP-1 cells measured after 72 hrs by CCK8 assay. The settings on record: THP-1, 72 h.
For test [4], the system named is CCRF-CEM. In words: Antitumor activity against human CCRF-CEM cells assessed as cell killing activity.
Test [5] relates to K562. The test can be described thus: Growth inhibition of human K562 cells measured after 72 hrs by CCK8 assay. The settings on record: K562, 72 h.
Test [6] deals with TF-1. The test can be described thus: Antitumor activity against human TF-1 cells assessed as inhibition in cell killing activity.
The subject of test [7] is THP-1. In words: Antitumor activity against human THP-1 cells assessed as inhibition in cell killing activity.
Test [8] has as its system CCRF-CEM. The test can be described thus: Growth inhibition of human CCRF-CEM cells measured after 72 hrs by CCK8 assay.
In test [9] the test system is K562. The test can be described thus: Antitumor activity against human K562 cells assessed as inhibition in cell killing activity.
In test [10] the test system is Raji. The test can be described thus: Antitumor activity against human Raji cells assessed as cell killing activity.

This is an account of results in ChEMBL document CHEMBL5365491, “Synthesis and anti-tumor activities in human leukemia-derived cells of polyenylpyrroles with a methyl group at the conjugated polyene terminus” (Bioorg Med Chem Lett, 2023).

For `CCOC(=O)/C=C/C=C/C=C/C=C/c1[nH]ccc1Cl`, the IC50 in test [1] was 10000 nM; in [2] it was 230 nM; in test [3], 1200 nM; in [4] (read-out: pIC50 (converted)), 251 nM; in test [5], greater than 10000 nM.
As for `CCOC(=O)/C=C/C=C/C=C/C=C/c1ccc[nH]1`, the IC50 is 250 nM in test [6], 770 nM in [7] and 1260 nM in test [4] (read-out: pIC50 (converted)).
Consider `COc1cc(\C(C)=C/C=C/C=C/C=C/c2[nH]ccc2Cl)oc(=O)c1C`, for which the IC50 in test [1] was 10000 nM; in test [4] (read-out: pIC50 (converted)) it was 1580 nM.
In the case of `CCOC(=O)/C=C/C=C/C=C/C=C/c1cccn1C`, the IC50 in test [8] is 10000 nM; in test [1], 10000 nM; in test [4] (read-out: pIC50 (converted)), greater than 10000 nM.
`CCOC(=O)/C(C)=C/C=C/C=C/C=C/c1ccc[nH]1`: the IC50 in test [9] is 280 nM; in test [10], 1600 nM; in test [6], 92 nM; in test [7] it was 98 nM; in [4] (read-out: IC50), 90 nM; in [4] (read-out: pIC50 (converted)), 79.4 nM.
For the compound `CCOC(=O)/C(C)=C/C=C/c1[nH]ccc1Cl`, the IC50 in [10] is greater than 10000 nM; in [4] (read-out: IC50), 8400 nM; in [4] (read-out: pIC50 (converted)) it was 7940 nM.
With `CCOC(=O)/C(C)=C/C=C/C=C/C=C/c1[nH]ccc1Cl`, the IC50 in test [9] was 1600 nM; in test [10], greater than 10000 nM; in [6] it was 37 nM; in test [7], 150 nM; in test [4] (read-out: IC50) it was 63 nM; in test [4] (read-out: pIC50 (converted)), 63.1 nM.
`CCOC(=O)/C(C)=C/C=C/C=C/c1[nH]ccc1Cl`: the results for the IC50 in test [10], in [4] (read-out: IC50) and in test [4] (read-out: pIC50 (converted)) were greater than 10000 nM, 230 nM and 251 nM, respectively.
As for `CCOC(=O)/C(C)=C/C=C/C=C/C=C/c1cccn1C`, the IC50 in test [10], in test [4] (read-out: IC50) and in test [4] (read-out: pIC50 (converted)) was greater than 10000 nM throughout.
For the compound `COc1cc(/C=C/C=C/C=C/C=C/c2[nH]ccc2Cl)oc(=O)c1` [AUXARCONJUGATIN B], the IC50 is 4900 nM in [9], 440 nM in [6], 1300 nM in test [7] and 501 nM in test [4] (read-out: pIC50 (converted)).
